{"source": "ChEMBL document CHEMBL1201862", "about": "“PubChem BioAssay data set” (2004)", "assay_type_in_all_cases": "functional", "key": {"[1]": {"assay": "THP-1 cell cytotoxicity, cytotoxicity control, set 4 (AID 504911)", "details": "Mycobacterium tuberculosis"}, "[2]": {"target": "T1, Sentrin-specific protease 8 (Homo sapiens, UniProt Q96LD8)", "T1 sequence (Q96LD8 whole entry)": "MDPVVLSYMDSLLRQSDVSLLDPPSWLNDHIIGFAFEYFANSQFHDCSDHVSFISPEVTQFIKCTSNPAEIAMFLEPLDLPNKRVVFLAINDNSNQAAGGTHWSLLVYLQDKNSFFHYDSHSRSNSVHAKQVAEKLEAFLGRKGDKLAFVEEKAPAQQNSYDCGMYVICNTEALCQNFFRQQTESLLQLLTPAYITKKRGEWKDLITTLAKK"}, "[3]": {"target": "T2, Sentrin-specific protease 6 (Homo sapiens, UniProt Q9GZR1)", "T2 sequence (Q9GZR1 whole entry)": "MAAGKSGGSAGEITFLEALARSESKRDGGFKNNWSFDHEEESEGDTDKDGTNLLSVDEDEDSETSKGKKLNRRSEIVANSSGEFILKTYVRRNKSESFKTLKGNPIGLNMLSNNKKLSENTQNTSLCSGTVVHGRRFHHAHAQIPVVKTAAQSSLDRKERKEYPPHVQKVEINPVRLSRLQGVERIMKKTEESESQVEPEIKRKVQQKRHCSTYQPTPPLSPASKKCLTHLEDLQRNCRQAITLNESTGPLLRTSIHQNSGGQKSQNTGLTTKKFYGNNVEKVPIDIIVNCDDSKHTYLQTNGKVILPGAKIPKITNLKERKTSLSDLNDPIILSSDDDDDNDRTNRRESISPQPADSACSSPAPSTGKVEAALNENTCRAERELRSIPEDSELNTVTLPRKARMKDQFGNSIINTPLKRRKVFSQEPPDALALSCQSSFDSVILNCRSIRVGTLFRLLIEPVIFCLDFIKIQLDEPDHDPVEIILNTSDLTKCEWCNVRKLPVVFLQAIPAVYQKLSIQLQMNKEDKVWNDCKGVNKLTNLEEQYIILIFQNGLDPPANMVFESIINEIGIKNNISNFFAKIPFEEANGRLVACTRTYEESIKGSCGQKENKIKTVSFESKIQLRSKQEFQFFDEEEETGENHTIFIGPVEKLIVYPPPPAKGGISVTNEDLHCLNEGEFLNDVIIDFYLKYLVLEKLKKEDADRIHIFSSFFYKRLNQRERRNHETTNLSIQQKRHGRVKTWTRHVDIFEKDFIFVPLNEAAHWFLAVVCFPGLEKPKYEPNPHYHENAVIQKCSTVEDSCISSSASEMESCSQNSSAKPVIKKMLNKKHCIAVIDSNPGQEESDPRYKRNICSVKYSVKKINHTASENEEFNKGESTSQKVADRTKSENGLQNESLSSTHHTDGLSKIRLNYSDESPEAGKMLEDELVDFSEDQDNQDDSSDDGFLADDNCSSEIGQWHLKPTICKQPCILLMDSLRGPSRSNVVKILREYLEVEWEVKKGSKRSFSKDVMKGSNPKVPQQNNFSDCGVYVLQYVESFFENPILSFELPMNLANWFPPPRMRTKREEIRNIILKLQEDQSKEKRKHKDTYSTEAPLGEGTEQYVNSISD"}, "Caspase-3": {"target": "T3, Caspase-3 (Homo sapiens, UniProt P42574)", "T3 sequence (P42574 whole entry)": "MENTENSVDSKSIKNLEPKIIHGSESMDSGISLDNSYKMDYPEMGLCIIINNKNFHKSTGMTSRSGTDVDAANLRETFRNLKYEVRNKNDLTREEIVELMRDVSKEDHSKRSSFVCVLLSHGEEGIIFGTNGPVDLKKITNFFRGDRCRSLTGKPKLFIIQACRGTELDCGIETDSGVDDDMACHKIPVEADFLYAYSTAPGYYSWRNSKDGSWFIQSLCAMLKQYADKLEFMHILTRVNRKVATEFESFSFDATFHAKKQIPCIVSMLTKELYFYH"}, "[4]": {"target": "T4, Sentrin-specific protease 7 (Homo sapiens, UniProt Q9BQF6)", "T4 sequence (Q9BQF6 whole entry)": "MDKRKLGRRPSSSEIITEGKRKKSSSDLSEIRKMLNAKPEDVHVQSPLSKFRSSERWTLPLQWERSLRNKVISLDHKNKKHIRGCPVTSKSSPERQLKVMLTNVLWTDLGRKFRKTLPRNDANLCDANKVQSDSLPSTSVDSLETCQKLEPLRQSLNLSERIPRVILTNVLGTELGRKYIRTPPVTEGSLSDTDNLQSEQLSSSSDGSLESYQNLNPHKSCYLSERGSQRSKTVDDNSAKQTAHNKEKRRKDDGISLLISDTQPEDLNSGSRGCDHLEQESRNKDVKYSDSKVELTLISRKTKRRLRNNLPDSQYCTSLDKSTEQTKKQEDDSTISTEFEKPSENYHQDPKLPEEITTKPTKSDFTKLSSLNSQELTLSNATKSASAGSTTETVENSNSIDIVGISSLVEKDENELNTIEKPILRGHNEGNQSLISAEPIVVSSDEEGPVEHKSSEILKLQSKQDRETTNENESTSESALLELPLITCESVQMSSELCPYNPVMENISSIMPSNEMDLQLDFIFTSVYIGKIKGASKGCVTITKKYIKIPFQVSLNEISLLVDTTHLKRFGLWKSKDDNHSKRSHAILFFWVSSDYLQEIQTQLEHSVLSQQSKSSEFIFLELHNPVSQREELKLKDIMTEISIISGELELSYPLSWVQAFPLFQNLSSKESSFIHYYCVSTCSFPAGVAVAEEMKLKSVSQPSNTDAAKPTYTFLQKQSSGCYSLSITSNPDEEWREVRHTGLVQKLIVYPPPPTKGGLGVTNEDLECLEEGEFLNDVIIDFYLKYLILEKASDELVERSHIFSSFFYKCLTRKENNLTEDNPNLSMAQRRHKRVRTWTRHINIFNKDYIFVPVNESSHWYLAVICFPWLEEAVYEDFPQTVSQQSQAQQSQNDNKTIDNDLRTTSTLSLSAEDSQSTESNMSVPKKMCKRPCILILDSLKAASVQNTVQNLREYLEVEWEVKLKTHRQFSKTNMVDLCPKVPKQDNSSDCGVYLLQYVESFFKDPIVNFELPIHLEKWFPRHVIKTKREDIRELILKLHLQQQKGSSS"}, "[5]": {"target": "T1, Sentrin-specific protease 8", "remark": "listed apart in the source"}, "[6]": {"target": "Mitochondrial peptide methionine sulfoxide reductase (Bos taurus, UniProt P54149)", "sequence (P54149 whole entry)": "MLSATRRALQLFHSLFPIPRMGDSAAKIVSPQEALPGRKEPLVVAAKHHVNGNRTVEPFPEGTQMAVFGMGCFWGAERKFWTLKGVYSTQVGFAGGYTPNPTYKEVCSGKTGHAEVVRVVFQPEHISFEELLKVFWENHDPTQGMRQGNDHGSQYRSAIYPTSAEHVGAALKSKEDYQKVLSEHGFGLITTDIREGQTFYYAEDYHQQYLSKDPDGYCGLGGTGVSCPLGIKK", "assay": "Absorbance-based biochemical high throughput dose response assay for activators of Methionine sulfoxide reductase A (MsrA)."}, "Aurora kinase B": {"target": "Aurora kinase B (Homo sapiens, UniProt Q96GD4)", "sequence (Q96GD4 whole entry)": "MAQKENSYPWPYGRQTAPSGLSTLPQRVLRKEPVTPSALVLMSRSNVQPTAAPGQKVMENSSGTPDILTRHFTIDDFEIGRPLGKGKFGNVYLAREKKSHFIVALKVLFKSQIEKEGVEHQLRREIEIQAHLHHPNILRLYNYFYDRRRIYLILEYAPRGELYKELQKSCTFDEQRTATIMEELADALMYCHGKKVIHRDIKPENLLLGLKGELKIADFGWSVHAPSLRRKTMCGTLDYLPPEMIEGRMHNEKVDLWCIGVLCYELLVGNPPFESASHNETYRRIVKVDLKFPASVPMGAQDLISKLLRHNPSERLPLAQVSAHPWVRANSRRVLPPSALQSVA"}, "[7]": {"target": "Vascular endothelial growth factor receptor 2 (Homo sapiens, UniProt P35968)", "sequence (P35968 whole entry)": "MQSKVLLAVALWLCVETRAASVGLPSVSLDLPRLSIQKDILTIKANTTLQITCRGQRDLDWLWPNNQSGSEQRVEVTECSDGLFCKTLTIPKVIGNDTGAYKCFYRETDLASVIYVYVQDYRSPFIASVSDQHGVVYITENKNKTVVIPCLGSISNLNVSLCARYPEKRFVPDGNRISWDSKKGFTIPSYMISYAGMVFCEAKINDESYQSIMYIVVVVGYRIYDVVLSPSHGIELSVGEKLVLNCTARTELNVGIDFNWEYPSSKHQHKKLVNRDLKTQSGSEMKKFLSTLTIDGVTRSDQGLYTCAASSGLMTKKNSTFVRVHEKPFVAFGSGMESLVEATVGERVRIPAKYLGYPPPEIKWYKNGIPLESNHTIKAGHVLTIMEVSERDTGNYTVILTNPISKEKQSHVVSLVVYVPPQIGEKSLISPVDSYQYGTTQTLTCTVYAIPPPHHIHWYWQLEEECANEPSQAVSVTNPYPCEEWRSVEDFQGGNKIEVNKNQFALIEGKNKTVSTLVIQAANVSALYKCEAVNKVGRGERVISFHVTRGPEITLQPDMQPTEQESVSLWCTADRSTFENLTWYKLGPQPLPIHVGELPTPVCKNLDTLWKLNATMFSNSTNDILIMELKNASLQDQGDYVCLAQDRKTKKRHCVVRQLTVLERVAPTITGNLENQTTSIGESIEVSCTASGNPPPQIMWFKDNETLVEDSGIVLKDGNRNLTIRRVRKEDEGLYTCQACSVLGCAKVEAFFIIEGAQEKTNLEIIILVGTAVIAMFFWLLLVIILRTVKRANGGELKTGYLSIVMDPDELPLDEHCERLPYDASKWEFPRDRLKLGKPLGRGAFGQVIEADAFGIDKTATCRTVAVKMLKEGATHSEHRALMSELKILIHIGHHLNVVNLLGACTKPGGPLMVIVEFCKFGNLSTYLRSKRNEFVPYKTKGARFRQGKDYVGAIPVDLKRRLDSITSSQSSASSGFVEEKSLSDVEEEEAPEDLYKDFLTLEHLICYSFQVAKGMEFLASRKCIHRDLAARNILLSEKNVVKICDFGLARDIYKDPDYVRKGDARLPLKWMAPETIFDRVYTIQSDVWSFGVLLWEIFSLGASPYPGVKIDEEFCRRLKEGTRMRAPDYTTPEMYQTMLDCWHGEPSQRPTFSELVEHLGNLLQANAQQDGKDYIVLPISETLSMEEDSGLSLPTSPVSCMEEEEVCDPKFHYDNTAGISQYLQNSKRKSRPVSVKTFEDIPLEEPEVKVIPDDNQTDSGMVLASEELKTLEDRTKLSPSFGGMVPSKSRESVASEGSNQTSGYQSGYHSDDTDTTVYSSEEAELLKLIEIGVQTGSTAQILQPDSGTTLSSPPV"}, "Aurora kinase A": {"target": "T5, Aurora kinase A (Homo sapiens, UniProt O14965)", "T5 sequence (O14965 whole entry)": "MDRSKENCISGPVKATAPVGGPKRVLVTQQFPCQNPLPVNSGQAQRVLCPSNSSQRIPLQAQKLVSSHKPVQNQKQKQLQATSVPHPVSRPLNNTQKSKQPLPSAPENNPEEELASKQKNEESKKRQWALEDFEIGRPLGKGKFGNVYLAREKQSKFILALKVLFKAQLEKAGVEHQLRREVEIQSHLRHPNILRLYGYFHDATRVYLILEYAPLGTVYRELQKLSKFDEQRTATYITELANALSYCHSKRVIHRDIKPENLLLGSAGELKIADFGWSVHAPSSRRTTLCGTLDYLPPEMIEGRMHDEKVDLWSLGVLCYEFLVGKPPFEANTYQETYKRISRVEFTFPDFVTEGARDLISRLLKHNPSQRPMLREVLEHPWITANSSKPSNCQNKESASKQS"}, "[8]": {"target": "T6, High affinity choline transporter 1 (Homo sapiens, UniProt Q9GZV3)", "T6 sequence (Q9GZV3 whole entry)": "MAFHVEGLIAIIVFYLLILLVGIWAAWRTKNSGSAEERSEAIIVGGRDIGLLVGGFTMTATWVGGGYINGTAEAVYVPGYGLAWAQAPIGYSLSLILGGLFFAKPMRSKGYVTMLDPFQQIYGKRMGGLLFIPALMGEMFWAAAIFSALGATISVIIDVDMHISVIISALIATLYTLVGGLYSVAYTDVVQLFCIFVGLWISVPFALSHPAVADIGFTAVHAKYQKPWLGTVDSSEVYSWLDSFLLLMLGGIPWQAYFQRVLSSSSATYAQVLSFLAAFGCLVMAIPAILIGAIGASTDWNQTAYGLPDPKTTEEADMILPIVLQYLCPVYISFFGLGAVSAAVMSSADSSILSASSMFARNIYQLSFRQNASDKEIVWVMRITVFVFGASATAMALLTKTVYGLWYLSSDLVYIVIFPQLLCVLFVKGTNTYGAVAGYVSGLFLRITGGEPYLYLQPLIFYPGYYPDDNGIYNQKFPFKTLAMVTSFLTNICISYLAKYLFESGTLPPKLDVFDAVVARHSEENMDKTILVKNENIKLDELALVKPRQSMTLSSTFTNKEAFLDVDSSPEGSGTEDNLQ", "assay": "CHT inhibitors, dose response, cell-based, 10-point CRC, membrane potential dye (AID 588401);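 also: membrane potential dye fluorescence of choline-evoked depolarization via CHT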"}, "[9]": {"target": "T6, High affinity choline transporter 1", "assay": "CHT inhibitors, dose response, cell-based, 5-point CRC, membrane potential dye (AID 504840)"}, "[10]": {"target": "T6, High affinity choline transporter 1", "assay": "inhibitors of CHT choline uptake, dose response, cell-based, 3H-choline uptake, CHT LV-AA trafficking mutant, CRC (AID 602208)"}, "[11]": {"target": "Ras and Rab interactor 1/Tyrosine-protein kinase ABL1 (Homo sapiens, UniProt P00519+Q13671)", "sequence (P00519 whole entry)": "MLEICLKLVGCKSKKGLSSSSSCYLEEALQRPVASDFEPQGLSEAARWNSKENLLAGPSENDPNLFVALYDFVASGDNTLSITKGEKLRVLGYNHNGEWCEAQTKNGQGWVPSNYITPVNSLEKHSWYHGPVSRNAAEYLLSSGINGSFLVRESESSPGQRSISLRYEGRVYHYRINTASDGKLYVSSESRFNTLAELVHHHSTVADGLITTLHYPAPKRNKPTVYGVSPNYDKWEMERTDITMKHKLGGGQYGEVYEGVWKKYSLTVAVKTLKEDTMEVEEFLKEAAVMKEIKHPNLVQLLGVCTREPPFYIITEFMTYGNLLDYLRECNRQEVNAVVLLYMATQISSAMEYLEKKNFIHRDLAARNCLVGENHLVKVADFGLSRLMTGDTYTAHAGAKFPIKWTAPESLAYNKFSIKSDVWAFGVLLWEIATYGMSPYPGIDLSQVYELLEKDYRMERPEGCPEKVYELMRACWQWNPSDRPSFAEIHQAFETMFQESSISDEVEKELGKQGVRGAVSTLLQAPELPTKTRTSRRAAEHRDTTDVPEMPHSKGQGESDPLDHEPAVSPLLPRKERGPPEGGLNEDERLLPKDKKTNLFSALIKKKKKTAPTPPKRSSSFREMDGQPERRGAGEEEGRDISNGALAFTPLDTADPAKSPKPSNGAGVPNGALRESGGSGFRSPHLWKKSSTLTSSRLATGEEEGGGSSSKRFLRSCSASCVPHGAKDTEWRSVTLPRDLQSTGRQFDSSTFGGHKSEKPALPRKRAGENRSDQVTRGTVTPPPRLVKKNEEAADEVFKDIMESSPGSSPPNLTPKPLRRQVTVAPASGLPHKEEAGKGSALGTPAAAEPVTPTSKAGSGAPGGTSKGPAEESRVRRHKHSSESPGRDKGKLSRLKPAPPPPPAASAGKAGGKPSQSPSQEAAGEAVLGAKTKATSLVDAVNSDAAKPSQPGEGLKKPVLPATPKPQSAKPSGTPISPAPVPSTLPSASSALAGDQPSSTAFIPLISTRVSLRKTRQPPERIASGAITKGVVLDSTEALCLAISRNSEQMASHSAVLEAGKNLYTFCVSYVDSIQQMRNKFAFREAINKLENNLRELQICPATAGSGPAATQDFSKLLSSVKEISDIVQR", "sequence (Q13671 whole entry)": "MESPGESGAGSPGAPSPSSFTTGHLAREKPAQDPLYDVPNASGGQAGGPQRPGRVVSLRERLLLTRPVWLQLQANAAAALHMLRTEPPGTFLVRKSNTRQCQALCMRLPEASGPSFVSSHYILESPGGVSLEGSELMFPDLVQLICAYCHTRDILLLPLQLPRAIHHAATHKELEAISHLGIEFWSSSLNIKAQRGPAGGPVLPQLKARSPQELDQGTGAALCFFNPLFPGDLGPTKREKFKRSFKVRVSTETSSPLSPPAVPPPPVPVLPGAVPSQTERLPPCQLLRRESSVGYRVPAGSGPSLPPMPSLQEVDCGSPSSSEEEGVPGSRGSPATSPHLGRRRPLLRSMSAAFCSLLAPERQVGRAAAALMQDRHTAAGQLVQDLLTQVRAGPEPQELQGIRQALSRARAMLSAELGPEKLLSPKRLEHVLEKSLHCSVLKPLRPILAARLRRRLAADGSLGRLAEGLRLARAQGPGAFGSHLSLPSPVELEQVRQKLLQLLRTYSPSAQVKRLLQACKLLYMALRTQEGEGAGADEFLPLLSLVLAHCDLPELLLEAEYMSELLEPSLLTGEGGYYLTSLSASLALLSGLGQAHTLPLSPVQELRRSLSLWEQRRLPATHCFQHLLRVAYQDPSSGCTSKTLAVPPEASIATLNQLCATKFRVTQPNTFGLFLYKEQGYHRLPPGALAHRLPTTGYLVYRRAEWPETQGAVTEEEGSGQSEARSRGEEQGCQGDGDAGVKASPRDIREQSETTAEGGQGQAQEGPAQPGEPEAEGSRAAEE"}}, "note": "Calls of active or inactive are those of the source."}
{"smiles": "CCSc1nc(C)c(C)c(O)n1", "values": [{"measurement": "CC50", "setting": "[1]", "value": "> 100000 nM (active)"}]}
{"smiles": "O=C(OCC(=O)N1CCN(c2ccccc2)CC1)c1ccc([N+](=O)[O-])s1", "values": [{"measurement": "IC50", "setting": "[2]", "value": "2310 nM (active)"}, {"measurement": "IC50", "setting": "[3]", "value": "6710 nM (active)"}, {"measurement": "IC50", "setting": "Caspase-3", "value": "10200 nM (active)"}, {"measurement": "IC50", "setting": "[4]", "value": "13800 nM (active)"}, {"measurement": "IC50", "setting": "[5]", "value": "5370 nM (active)"}, {"measurement": "EC50", "setting": "[6]", "value": "24800 nM (inactive)"}]}
{"smiles": "COc1cc(Nc2ncc(C(F)(F)F)c(OC)n2)cc(OC)c1OC", "values": [{"measurement": "Ki", "setting": "Aurora kinase B", "value": "15.8 nM (active)"}, {"measurement": "Ki", "setting": "[7]", "value": "631 nM (active)"}, {"measurement": "Ki", "setting": "Aurora kinase A", "value": "50.1 nM (active)"}]}
{"smiles": "CC(NC(=O)c1ccc(OC2CCN(Cc3ccccn3)CC2)cc1)c1ccccc1", "note": "(centres undefined)", "values": [{"measurement": "IC50", "setting": "[8]", "value": "1260 nM (active)"}, {"measurement": "IC50", "setting": "[9]", "value": "1600 nM (active)"}, {"measurement": "IC50", "setting": "[10]", "value": "1790 nM (active)"}]}
{"smiles": "N#Cc1ccccc1Sc1ccccc1C(=O)NCC(c1ccco1)N1CCCC1", "note": "(centres undefined)", "values": [{"measurement": "IC50", "setting": "[11]", "value": "2480 nM (active)"}]}
